Source: PMC2694132 (Cancer research, 2009)
Numbering of substitutions follows the chain as printed. “Also recorded” adds a separate entry of the source.

Assays:
[1] = target: T1, UGT1A7*2 [UGT1A7p.(Asn129Lys)+(Arg131Lys)] (Homo sapiens, UniProt Q9HAW7, N129K/R131K); assay: SAHA glucuronidation, UGT1A7*2 variant cell homogenate; assay type: in vitro ADME
T1 sequence (Q9HAW7 26-530 N129K/R131K): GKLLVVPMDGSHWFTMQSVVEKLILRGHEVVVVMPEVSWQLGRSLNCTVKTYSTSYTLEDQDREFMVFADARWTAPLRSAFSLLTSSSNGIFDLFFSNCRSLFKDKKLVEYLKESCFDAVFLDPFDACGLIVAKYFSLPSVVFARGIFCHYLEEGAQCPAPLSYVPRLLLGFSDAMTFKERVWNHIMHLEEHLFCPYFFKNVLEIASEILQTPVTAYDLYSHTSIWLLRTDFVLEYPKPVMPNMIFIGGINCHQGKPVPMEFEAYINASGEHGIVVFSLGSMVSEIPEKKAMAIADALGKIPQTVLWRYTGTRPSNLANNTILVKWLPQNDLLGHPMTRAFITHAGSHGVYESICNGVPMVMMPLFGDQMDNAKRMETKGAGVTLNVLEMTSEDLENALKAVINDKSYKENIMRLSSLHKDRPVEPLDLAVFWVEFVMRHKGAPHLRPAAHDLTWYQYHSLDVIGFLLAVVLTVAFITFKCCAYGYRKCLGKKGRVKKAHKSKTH

[2] = target: T2, UGT1A8*2 (UGT1A8p.Ala173Gly) (Homo sapiens, UniProt Q9HAW9, A173G); assay: SAHA glucuronidation, UGT1A8*2 variant cell homogenate; assay type: in vitro ADME
T2 sequence (Q9HAW9 26-530 A173G): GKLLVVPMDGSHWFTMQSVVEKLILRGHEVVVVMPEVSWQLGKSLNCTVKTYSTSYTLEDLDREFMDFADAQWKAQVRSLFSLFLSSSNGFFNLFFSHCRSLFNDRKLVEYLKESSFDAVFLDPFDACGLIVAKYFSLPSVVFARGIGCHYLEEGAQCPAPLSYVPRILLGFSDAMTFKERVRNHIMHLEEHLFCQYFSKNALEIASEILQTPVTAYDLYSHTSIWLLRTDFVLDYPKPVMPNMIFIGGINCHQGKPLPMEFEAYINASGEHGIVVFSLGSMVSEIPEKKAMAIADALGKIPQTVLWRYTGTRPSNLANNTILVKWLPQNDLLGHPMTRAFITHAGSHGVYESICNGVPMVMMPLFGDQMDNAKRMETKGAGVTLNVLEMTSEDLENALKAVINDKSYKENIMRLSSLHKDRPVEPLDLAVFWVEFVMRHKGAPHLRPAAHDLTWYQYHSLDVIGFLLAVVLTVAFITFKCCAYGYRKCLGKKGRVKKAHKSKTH

[3] = target: T3, UGT1A8*3 (UGT1A8p.Cys277Tyr) (Homo sapiens, UniProt Q9HAW9, C277Y); assay: Glucuronidation, UGT1A8*3 variant cell homogenate; assay type: in vitro ADME; settings: using up to 8 mmol/L SAHA
T3 sequence (Q9HAW9 26-530 C277Y): T2 sequence (Q9HAW9 26-530 A173G) with G148A, C252Y

UGT2B10 = target: T4, UGT2B10 (Homo sapiens, UniProt P36537); assay: SAHA glucuronidation screen, UGT2B10-overexpressing cell homogenate; assay type: in vitro ADME; settings: 400 μg UGT-overexpressing cell homogenate, 1-h incubation
T4 sequence (P36537 24-528): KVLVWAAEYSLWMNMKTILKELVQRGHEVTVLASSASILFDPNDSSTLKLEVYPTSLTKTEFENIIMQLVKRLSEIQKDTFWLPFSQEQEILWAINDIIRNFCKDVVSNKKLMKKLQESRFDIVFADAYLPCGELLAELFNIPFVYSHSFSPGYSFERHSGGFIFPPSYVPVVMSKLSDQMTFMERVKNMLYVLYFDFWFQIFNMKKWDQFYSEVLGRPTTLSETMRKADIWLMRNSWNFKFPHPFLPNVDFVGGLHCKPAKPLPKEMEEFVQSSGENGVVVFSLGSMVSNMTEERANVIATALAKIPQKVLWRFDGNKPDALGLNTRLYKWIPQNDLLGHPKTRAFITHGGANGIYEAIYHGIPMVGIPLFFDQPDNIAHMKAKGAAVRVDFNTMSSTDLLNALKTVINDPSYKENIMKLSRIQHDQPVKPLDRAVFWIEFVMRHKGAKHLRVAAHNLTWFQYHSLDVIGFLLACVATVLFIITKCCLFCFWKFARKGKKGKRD

UGT2B11 = target: T5, UGT2B11 (Homo sapiens, UniProt O75310); assay: SAHA glucuronidation screen, UGT2B11-overexpressing cell homogenate; assay type: in vitro ADME; settings: 400 μg UGT-overexpressing cell homogenate, 1-h incubation
T5 sequence (O75310 22-529): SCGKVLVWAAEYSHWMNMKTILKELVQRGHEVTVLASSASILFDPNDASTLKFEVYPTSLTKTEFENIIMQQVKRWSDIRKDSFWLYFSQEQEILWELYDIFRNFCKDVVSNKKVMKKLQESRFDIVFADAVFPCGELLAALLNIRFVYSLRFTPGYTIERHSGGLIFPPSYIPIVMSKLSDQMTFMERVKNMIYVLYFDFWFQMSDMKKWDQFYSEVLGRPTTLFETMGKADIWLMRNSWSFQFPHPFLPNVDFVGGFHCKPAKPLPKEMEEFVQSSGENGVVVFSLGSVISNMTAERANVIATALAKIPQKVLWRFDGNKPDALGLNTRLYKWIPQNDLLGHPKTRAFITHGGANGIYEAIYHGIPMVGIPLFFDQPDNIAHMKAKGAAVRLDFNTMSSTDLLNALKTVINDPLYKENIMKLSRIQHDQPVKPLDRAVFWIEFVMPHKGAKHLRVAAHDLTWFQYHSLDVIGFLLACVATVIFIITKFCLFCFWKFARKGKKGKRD

Compound: O=C(CCCCCCC(=O)Nc1ccccc1)NO [SAHA, Suberoylanilide hydroxamic acid]
- difference in glucuronidation activity against SAHA versus wild-type UGT1A7 ([1]; UGT1A7 variants): No significant difference
- Km at 1 h ([1]; human, pH 7.5): 2500 ± 300 µM
- decrease in glucuronidation activity against SAHA compared with wild-type UGT1A8 ([2]; UGT1A8p.Ala173Gly variant, P < 0.005): 3 fold
- Km at 1 h ([2]; human, UGT1A8*2 variant-overexpressing cell homogenate, pH 7.5): 3000 ± 700 µM
- glucuronidation activity against SAHA [3]: no detectable glucuronidation activity; also recorded: inactive
- glucuronidation activity against SAHA (screen) (UGT2B10): No detectable glucuronidation activity
- glucuronidation activity against SAHA (screen) (UGT2B11): No detectable glucuronidation activity
- SAHA-glucuronide formation, HLM with one versus two intact UGT2B17 alleles (200 μmol/L SAHA): No difference
- decrease in SAHA-glucuronide formation, UGT2B17 (*2/*2) HLM versus HLM with intact UGT2B17 (200 μmol/L SAHA, 20 μg HLM protein, 100 subjects): 45%
- increase in KM, UGT2B17 (*2/*2) HLM versus UGT2B17 (*1/*1) HLM (13 HLM per genotype, 65 to 8,000 μmol/L SAHA): 75%
- change in Vmax between UGT2B17 genotype subgroups (HLM (*1/*1) versus (*2/*2)): No change
- share of hepatic SAHA glucuronidation from UGT2B17 (from UGT2B17-deleted versus wild-type HLM): ~ 45%
